Laboratory results taken from US20260193319A1, “PLATELET-BINDING PROTEINS AND CONJUGATES THEREOF, PARTICLES COMPRISING THEM AND USES THEREOF” (Haima Therapeutics, LLC, priority 2022, published 2026).
Values joined by “and” are separate entries in the source; they are usually repeats but may differ in a detail not shown here. Equal values may be shown once. Where a SMILES comes first, the peptide text is derived from it. Bridges are numbered along the chain shown (N, C = ends). [ ]: non-standard residue; d: D form. Pra = C#CC[C@H](N)C(=O)O; βAla = NCCC(=O)O

Experiments:
[1] = biological target: GPIIb/IIIa on active human platelets (human) (UniProt P08514); experiment: cell-based or functional assay
UniProt P08514, sequence (P08514 32-1039, chain 1 of 2): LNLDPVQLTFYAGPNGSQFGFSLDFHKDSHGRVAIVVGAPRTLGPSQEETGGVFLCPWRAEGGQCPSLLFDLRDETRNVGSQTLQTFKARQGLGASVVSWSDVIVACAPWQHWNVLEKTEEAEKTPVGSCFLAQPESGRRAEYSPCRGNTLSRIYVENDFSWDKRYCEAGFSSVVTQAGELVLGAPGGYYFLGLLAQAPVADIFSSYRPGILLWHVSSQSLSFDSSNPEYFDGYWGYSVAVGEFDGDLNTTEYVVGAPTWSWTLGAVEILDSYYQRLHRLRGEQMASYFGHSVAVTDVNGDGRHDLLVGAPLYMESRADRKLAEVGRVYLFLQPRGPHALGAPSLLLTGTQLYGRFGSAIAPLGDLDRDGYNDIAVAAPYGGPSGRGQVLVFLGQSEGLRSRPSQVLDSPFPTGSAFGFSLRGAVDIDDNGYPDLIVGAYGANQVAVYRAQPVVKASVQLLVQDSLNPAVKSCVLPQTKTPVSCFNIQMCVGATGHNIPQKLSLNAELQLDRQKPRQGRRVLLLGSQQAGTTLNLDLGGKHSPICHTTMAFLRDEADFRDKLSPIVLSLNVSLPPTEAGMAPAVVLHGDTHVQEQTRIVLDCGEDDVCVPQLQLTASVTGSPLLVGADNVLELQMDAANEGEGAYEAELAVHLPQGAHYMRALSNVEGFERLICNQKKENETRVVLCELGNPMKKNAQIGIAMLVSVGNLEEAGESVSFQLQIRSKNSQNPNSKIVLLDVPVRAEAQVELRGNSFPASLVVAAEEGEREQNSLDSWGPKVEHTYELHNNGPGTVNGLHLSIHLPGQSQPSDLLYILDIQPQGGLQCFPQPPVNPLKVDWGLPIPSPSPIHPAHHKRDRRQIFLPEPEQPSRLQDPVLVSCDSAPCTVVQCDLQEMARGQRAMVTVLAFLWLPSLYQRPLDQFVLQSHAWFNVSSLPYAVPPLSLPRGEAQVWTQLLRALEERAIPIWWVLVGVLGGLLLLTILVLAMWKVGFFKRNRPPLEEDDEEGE
UniProt P08514, sequence (P05106 27-788, chain 2 of 2, further chain): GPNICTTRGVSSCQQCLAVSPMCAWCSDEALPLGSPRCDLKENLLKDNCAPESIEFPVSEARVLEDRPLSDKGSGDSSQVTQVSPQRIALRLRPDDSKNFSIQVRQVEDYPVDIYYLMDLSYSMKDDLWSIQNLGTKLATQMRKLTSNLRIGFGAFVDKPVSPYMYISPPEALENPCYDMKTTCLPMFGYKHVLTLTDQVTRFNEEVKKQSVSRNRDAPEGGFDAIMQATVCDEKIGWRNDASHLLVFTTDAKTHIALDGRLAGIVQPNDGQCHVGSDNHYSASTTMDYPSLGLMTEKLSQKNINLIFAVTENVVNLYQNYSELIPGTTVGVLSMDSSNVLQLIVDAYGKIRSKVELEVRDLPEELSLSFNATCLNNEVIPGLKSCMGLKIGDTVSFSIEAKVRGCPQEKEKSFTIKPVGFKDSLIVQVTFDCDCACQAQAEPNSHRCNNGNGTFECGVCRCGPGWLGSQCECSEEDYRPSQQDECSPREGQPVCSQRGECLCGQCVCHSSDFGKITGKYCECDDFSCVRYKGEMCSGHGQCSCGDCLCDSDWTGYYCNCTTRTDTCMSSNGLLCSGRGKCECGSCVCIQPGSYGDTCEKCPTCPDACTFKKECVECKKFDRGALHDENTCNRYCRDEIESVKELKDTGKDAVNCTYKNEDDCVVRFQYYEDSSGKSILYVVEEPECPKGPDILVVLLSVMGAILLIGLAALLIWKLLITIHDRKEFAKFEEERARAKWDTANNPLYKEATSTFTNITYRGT

[2] = system: human platelets (PRP stimulated with ADP); experiment: Peptide inhibition of platelet aggregation, light transmission aggregometry in human PRP/ADP; type: cell-based; conditions: for Peptide Inhibition of Platelet Aggregation, pass/fail result: criterion: inhibition of platelet aggregation, FMP2 IC50 ≤ FMP1 IC50; for IC50: human PRP/ADP, final aggregation, log-dose vs response fit, approximate
Excerpt: The properties of the FMP2 peptide and peptide-decorated particles (synthetic platelet) were compared to those of the old FMP1 peptide. First, Chang et al. have shown that cyclic RGD peptides are able to selectively bind to activated platelets and prevent human platelet aggregation as measured via platelet light transmission aggregometry. This protocol was adapted and performed to compare the IC50 values of FMP1 and FMP2. Specifically, human whole blood was drawn from healthy, aspirin refraining donors via venipuncture into syringe containing 3.8% w/v sodium citrate. Platelet rich plasma (PRP) was obtained by centrifugation of whole blood in a tabletop centrifuge at 150×g for 15 minutes. Platelet aggregation experiments were performed with 225 μl of 25% o (v/v) diluted PRP stimulated with 25 μl of 10 μM adenosine 5′-diphosphate (ADP) (or saline as a negative control) on a Bio/Data PAP-8E Platelet Aggregation Profiler. 20 μl of saline containing 0.0001 μM to 250 μM of FMP1 or FMP2 (at each order of magnitude) were added to the 25% o diluted PRP, and final aggregation percentage was recorded. In GraphPad Prism®, a non-linear fit of log-dose vs. response was applied to the data, and the IC50 for each peptide was determined by calculating the intersection point at y=50.

IC50 of inhibition of ADP-stimulated human platelet aggregation (light transmission aggregometry, diluted PRP, final aggregation %) [1] [µM] | Compound | concentrations inhibiting platelet aggregation, FMP2 relative to FMP1 ([2]; comparison of IC50) | Peptide Inhibition of Platelet Aggregation, pass/fail result [2] | IC50 [2]
0.13 | FMP2, cyclo-(CNPRGD{Tyr(OEt)}R-β-A) trifluoroacetate salt (peptide) |  |  | 
 | CCOc1ccc(C[C@@H]2NC(=O)[C@H](CC(=O)O)NC(=O)CNC(=O)[C@H](CCCNC(=N)N)NC(=O)[C@@H]3CCCN3C(=O)[C@H](CC(N)=O)NC(=O)[C@H](CS)NC(=O)CCNC(=O)[C@H](CCCNC(=N)N)NC2=O)cc1 [FMP2, cyclo-(CNPRGD{Tyr(OEt)}R-β-A)] (cyclo(CNPRGDY(Et)R[βAla])) | over three orders of magnitude below FMP1 | Pass | ~0.13 µM and 0.13 µM
537 | FMP1, cyclo-{Pra}CNPRGD{Tyr(OEt)}RC trifluoroacetate salt (peptide) |  |  | 
 | C#CC[C@H](N)C(=O)N[C@H]1CSSC[C@@H](C(=O)O)NC(=O)[C@H](CCCNC(=N)N)NC(=O)[C@H](Cc2ccc(OCC)cc2)NC(=O)[C@H](CC(=O)O)NC(=O)CNC(=O)[C@H](CCCNC(=N)N)NC(=O)[C@@H]2CCCN2C(=O)[C@H](CC(N)=O)NC1=O [FMP1, cyclo-{Pra}CNPRGD{Tyr(OEt)}RC, reference compound] (H-[Pra]CNPRGDY(Et)RC-OH; disulfide 2-10; N-terminus and C-terminus assumed) |  | Pass | ~537 µM and 537 µM
